Results on 14 compounds are retold here after patent US12209102B2, “Heterocyclic compounds and uses thereof” (Kumquat Biosciences Inc., priority 2022, dated 2025).

pIC50: −log10 of the molar value.

As a reminder, the pIC50 is −log10 of the IC50, conventionally taken in molar units.

The subject of one experiment is GP2D cells. In words: Ras cellular assay, growth of cells with K-Ras G12D mutation (CellTiter-Glo). The class given is cell-based. Particulars: cell growth, Example 9, G12D mutation, read-out: IC50 against GP2D cells. In general terms: In ATP-based viability assays light output follows the ATP content of the culture.
The next experiment addresses T1, K-Ras G12V (Homo sapiens, UniProt P01116, G12V).
T1 construct: made in house; host or cells: E. coli BL21 (DE3)
Briefly: HTRF resonance energy transfer assay, K-Ras G12V / SOS1 interaction. Format: biochemical. As to conditions: HTRF assay of Example 5; read-out: IC50 against K-Ras G12V. Summed up:
(§1)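 Buffer about 5 mM HEPES pH 7.4 with ~150 mM NaCl, ~1 mM DTT, 0.05% BSA, 0.0025% (v/v) Igepal. Protein constructs used at molarity matching the IC50 range studied (e.g. ~500 nM). FRET between tagged K-Ras and hSOS1 measured after short incubation.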
On the technique in general: TR-FRET usually uses a lanthanide donor and a delayed reading to cut background.

The target of a further experiment is T2, K-Ras WT (Homo sapiens, UniProt P01116).
T2 construct: made in house; host or cells: E. coli BL21 (DE3)
T2 sequence (P01116 1-188 isoform P01116-2): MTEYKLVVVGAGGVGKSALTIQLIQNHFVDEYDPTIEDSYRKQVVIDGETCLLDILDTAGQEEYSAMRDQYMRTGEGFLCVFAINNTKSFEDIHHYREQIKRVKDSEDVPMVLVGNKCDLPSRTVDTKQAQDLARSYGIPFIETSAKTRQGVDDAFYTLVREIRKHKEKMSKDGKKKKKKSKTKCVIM
In words: HTRF resonance energy transfer assay, K-Ras WT / SOS1 interaction. Format: biochemical. Particulars: HTRF assay of Example 5; read-out: IC50 against K-Ras WT. Summed up:
as §1

A further experiment deals with T3, K-Ras G12D (Homo sapiens, UniProt P01116, G12D).
T3 construct: made in house; host or cells: E. coli BL21 (DE3)
T3 sequence (P01116 1-188 isoform P01116-2 G12D): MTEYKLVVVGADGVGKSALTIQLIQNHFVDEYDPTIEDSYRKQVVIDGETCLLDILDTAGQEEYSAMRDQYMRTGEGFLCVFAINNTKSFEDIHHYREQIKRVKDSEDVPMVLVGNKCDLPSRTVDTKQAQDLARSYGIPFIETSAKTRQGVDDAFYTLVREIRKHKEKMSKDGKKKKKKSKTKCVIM
Briefly: HTRF resonance energy transfer assay, K-Ras G12D / SOS1 interaction. Particulars: HTRF assay of Example 5; read-out: IC50 against K-Ras G12D. The class given is biochemical. Summed up:
as §1

In another experiment the target is T4, K-Ras G12S (Homo sapiens, UniProt P01116, G12S).
T4 construct: made in house; host or cells: E. coli BL21 (DE3)
T4 sequence (P01116 1-188 isoform P01116-2 G12S): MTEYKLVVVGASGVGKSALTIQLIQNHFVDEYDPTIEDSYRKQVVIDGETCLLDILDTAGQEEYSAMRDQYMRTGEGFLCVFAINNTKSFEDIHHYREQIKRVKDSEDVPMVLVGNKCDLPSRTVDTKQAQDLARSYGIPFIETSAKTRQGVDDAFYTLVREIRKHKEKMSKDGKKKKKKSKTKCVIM
In words: HTRF resonance energy transfer assay, K-Ras G12S / SOS1 interaction. Format: biochemical. As to conditions: HTRF assay of Example 5; read-out: IC50 against K-Ras G12S. Summed up: as §1

The subject of a further experiment is SW620 cells. Briefly: Ras cellular assay, growth of cells with K-Ras G12V mutation (CellTiter-Glo). The class given is cell-based. Particulars: Homo sapiens, SW-620; cell growth, Example 9, G12V mutation; read-out: IC50 against SW620 cells. Summed up:
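IC50 values came from a four-parameter fit of CellTiter-Glo viability, read roughly 6 days after dosing with e.g. a 10-point threefold dilution series. G12V-mutant SW620 cells (e.g. 800 per well) had been plated the previous day in RPMI-1640/10% heat-inactivated FBS, on tissue culture-treated or ultra-low attachment plates.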

For the next experiment, the system named is A549 cells. In words: Ras cellular assay, growth of cells with K-Ras G12S mutation (CellTiter-Glo). The class given is cell-based. As to conditions: Homo sapiens, cell growth, Example 9, G12S mutation, read-out: IC50 against A549 cells. Summed up: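 Growth inhibition IC50 values come from four-parameter fits of CellTiter-Glo luminescence, read about 6 days after compound addition. G12S-mutant A549 cells (e.g. 800/well, RPMI-1640 + 10% heat-inactivated FBS) were plated in tissue-culture-treated or ultra-low-attachment 384-well format. Dosing began the following day with serial dilutions, e.g. 10 points, 3-fold.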

T1 sequence (P01116 1-188 isoform P01116-2 G12V): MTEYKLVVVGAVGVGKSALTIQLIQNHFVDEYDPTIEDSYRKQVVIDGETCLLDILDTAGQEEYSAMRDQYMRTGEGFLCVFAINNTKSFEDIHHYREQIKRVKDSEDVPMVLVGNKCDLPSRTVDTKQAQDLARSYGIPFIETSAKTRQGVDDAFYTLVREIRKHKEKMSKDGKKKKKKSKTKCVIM

Consider `N#Cc1c(N)sc2c(F)ccc(-c3c(Cl)c4c5c(nc(OC[C@@]67CCCN6C[C@H](F)C7)nc5c3F)N(CC3CC3C#N)[C@@H](C3(O)CC3)CO4)c12` (single isomer, unassigned) [Compound 942], for which the pIC50 with GP2D cells is more than 6.30.

As for `N#Cc1c(N)sc2c(F)ccc(-c3c(Cl)c4c5c(nc(OC[C@@]67CCCN6C[C@H](F)C7)nc5c3F)N(C3CCCCC3O)CCO4)c12` (stereo partly drawn) [Compound 602, 2-amino-4-(8-chloro-10-fluoro-2-(((2R,7aS)-2-fluorotetrahydro-1H-pyrrolizin-7a(5H)-yl)methoxy)-4-(2-hydroxycyclohexyl)-5,6-dihydro-4H-[1,4]oxazepino[5,6,7-de]quinazolin-9-yl)-7-fluorobenzo[b]thiophene-3-carbonitrile], the pIC50 with GP2D cells was more than 6.30.

As for `C[C@H]1COc2c(Cl)c(-c3ccc(F)c4sc(N)c(C#N)c34)c(F)c3nc(OC[C@@]45CCCN4C[C@H](F)C5)nc(c23)N1C1CCOC1` (stereo partly drawn) [Compound 647, 2-amino-4-((5S)-8-chloro-10-fluoro-2-(((2R,7aS)-2-fluorotetrahydro-1H-pyrrolizin-7a(5H)-yl)methoxy)-5-methyl-4-(tetrahydrofuran-3-yl)-5,6-dihydro-4H-[1,4]oxazepino[5,6,7-de]quinazolin-9-yl)-7-fluorobenzo[b]thiophene-3-carbonitrile], the negative-log IC50 (pIC50) in the experiment on GP2D cells was more than 6.30.

As for `N#Cc1c(N)sc2c(F)ccc(-c3c(Cl)c4c5c(nc(OC[C@@]67CCCN6C[C@H](F)C7)nc5c3F)N(C3CCC5(C3)CN(C(=O)C3CC3)C5)CCO4)c12` (stereo partly drawn) [Compound 650, 2-amino-4-(8-chloro-4-(2-(cyclopropanecarbonyl)-2-azaspiro[3.4]octan-6-yl)-10-fluoro-2-(((2R,7aS)-2-fluorotetrahydro-1H-pyrrolizin-7a(5H)-yl)methoxy)-5,6-dihydro-4H-[1,4]oxazepino[5,6,7-de]quinazolin-9-yl)-7-fluorobenzo[b]thiophene-3-carbonitrile], the negative-log IC50 (pIC50) in the experiment on GP2D cells is more than 6.30.

Turning to `N#Cc1c(N)sc2c(F)ccc(-c3c(Cl)c4c5c(nc(OC[C@@]67CCCN6C[C@H](F)C7)nc5c3F)N(CC(F)F)[C@@H](C3(O)CC3)CO4)c12` [Compound 707, 2-amino-4-((R)-8-chloro-4-(2,2-difluoroethyl)-10-fluoro-2-(((2R,7aS)-2-fluorotetrahydro-1H-pyrrolizin-7a(5H)-yl)methoxy)-5-(1-hydroxycyclopropyl)-5,6-dihydro-4H-[1,4]oxazepino[5,6,7-de]quinazolin-9-yl)-7-fluorobenzo[b]thiophene-3-carbonitrile], the pIC50 is more than 7.00 at K-Ras G12V; more than 7.00 at K-Ras WT; more than 7.00 at K-Ras G12D; more than 6.30 in the experiment with GP2D cells; more than 7.00 at K-Ras G12S.

As to `C[C@H]1COc2c(Cl)c(-c3ccc(F)c4sc(N)c(C#N)c34)c(F)c3nc(OC[C@@]45CCCN4C[C@H](F)C5)nc(c23)N1CC1CC1C#N` (stereo partly drawn) [Compound 731, 2-amino-4-((5S)-8-chloro-4-((2-cyanocyclopropyl)methyl)-10-fluoro-2-(((2R,7aS)-2-fluorotetrahydro-1H-pyrrolizin-7a(5H)-yl)methoxy)-5-methyl-5,6-dihydro-4H-[1,4]oxazepino[5,6,7-de]quinazolin-9-yl)-7-fluorobenzo[b]thiophene-3-carbonitrile], the pIC50 in the experiment on GP2D cells is more than 6.30.

`N#Cc1c(N)sc2c(F)ccc(-c3c(Cl)c4c5c(nc(OC[C@@]67CCCN6C[C@H](F)C7)nc5c3F)N(C3CCOC3)[C@@H](C(F)F)CO4)c12` (stereo partly drawn) [Compound 871, 2-amino-4-((5R)-8-chloro-5-(difluoromethyl)-10-fluoro-2-(((2R,7aS)-2-fluorotetrahydro-1H-pyrrolizin-7a(5H)-yl)methoxy)-4-(tetrahydrofuran-3-yl)-5,6-dihydro-4H-[1,4]oxazepino[5,6,7-de]quinazolin-9-yl)-7-fluorobenzo[b]thiophene-3-carbonitrile]: the pIC50 in the experiment on GP2D cells was more than 6.30.

In the case of `C=C(C)[C@H]1COc2c(Cl)c(-c3ccc(F)c4sc(N)c(C#N)c34)c(F)c3nc(OC[C@@]45CCCN4C[C@H](F)C5)nc(c23)N1CC(F)F` [Compound 879, 2-amino-4-((5S)-8-chloro-4-(2,2-difluoroethyl)-10-fluoro-2-(((2R,7aS)-2-fluorotetrahydro-1H-pyrrolizin-7a(5H)-yl)methoxy)-5-(prop-1-en-2-yl)-5,6-dihydro-4H-[1,4]oxazepino[5,6,7-de]quinazolin-9-yl)-7-fluorobenzo[b]thiophene-3-carbonitrile], the negative logarithm of the IC50 (pIC50) at K-Ras G12V was more than 7.00; at K-Ras WT it was more than 7.00; at K-Ras G12D, more than 7.00; in the experiment on GP2D cells it was more than 6.30; on K-Ras G12S, more than 7.00.

Turning to `N#Cc1c(N)sc2c(F)ccc(-c3c(Cl)c4c5c(nc(OC[C@@]67CCCN6C[C@H](F)C7)nc5c3F)N(CC3CC3C#N)[C@@H](C(F)F)CO4)c12` (stereo partly drawn) [Compound 938, 2-amino-4-((5R)-8-chloro-4-((2-cyanocyclopropyl)methyl)-5-(difluoromethyl)-10-fluoro-2-(((2R,7aS)-2-fluorotetrahydro-1H-pyrrolizin-7a(5H)-yl)methoxy)-5,6-dihydro-4H-[1,4]oxazepino[5,6,7-de]quinazolin-9-yl)-7-fluorobenzo[b]thiophene-3-carbonitrile], the pIC50 with GP2D cells was more than 6.30.

For the compound `N#Cc1c(N)sc2c(F)ccc(-c3c(Cl)c4c5c(nc(OC[C@@]67CCCN6C[C@H](F)C7)nc5c3F)N(C3CC(NC=O)C3)CCO4)c12` (stereo partly drawn) [Compound 988, N-(3-(9-(2-amino-3-cyano-7-fluorobenzo[b]thiophen-4-yl)-8-chloro-10-fluoro-2-(((2R,7aS)-2-fluorotetrahydro-1H-pyrrolizin-7a(5H)-yl)methoxy)-5,6-dihydro-4H-[1,4]oxazepino[5,6,7-de]quinazolin-4-yl)cyclobutyl)formamide], the pIC50 in the experiment with GP2D cells is more than 6.30.

On to `COCCN1CCCOc2c(Cl)c(-c3ccc(F)c4sc(N)c(C#N)c34)c(F)c3nc(OC[C@@]45CCCN4C[C@H](F)C5)nc1c23` [Compound 1201, 2-amino-4-(9-chloro-11-fluoro-2-(((2R,7aS)-2-fluorotetrahydro-1H-pyrrolizin-7a(5H)-yl)methoxy)-4-(2-methoxyethyl)-4,5,6,7-tetrahydro-[1,5]oxazocino[4,3,2-de]quinazolin-10-yl)-7-fluorobenzo[b]thiophene-3-carbonitrile], for which the pIC50 on K-Ras G12V is more than 7.00; with SW620 cells it was more than 5.30; on K-Ras WT, more than 7.00; at K-Ras G12D it was more than 7.00; with A549 cells, more than 5.30; at K-Ras G12S it was more than 7.00.

On to `N#Cc1c(N)sc2c(F)ccc(-c3c(Cl)c4c5c(nc(OC[C@@]67CCCN6C[C@H](F)C7)nc5c3F)N(C3CCOC3)CCCO4)c12` (stereo partly drawn) [Compound 1205, 2-amino-4-(9-chloro-11-fluoro-2-(((2R,7aS)-2-fluorotetrahydro-1H-pyrrolizin-7a(5H)-yl)methoxy)-4-(tetrahydrofuran-3-yl)-4,5,6,7-tetrahydro-[1,5]oxazocino[4,3,2-de]quinazolin-10-yl)-7-fluorobenzo[b]thiophene-3-carbonitrile], for which the pIC50 on K-Ras G12V is more than 7.00; in the experiment with SW620 cells, more than 5.30; at K-Ras WT it was more than 7.00; on K-Ras G12D, more than 7.00; in the experiment on A549 cells it was more than 5.30; at K-Ras G12S it was more than 7.00.

Turning to `CC1COc2c(Cl)c(-c3ccc(F)c4sc(N)c(C#N)c34)c(F)c3nc(OC[C@@]45CCCN4C[C@H](F)C5)nc(c23)N(C)[C@@H]1C` (stereo partly drawn) [Compound 1206, 2-amino-4-((5R)-9-chloro-11-fluoro-2-(((2R,7aS)-2-fluorotetrahydro-1H-pyrrolizin-7a(5H)-yl)methoxy)-4,5,6-trimethyl-4,5,6,7-tetrahydro-[1,5]oxazocino[4,3,2-de]quinazolin-10-yl)-7-fluorobenzo[b]thiophene-3-carbonitrile], the pIC50 on K-Ras G12V is more than 7.00; in the experiment with SW620 cells it was more than 5.30; on K-Ras WT, more than 7.00; on K-Ras G12D it was more than 7.00; in the experiment on A549 cells, more than 5.30; on K-Ras G12S, more than 7.00.

Take `CC1CCOc2c(Cl)c(-c3ccc(F)c4sc(N)c(C#N)c34)c(F)c3nc(OC[C@@]45CCCN4C[C@H](F)C5)nc(c23)N1C1CC1` (stereo partly drawn) [Compound 1215, 2-amino-4-(9-chloro-4-cyclopropyl-11-fluoro-2-(((2R,7aS)-2-fluorotetrahydro-1H-pyrrolizin-7a(5H)-yl)methoxy)-5-methyl-4,5,6,7-tetrahydro-[1,5]oxazocino[4,3,2-de]quinazolin-10-yl)-7-fluorobenzo[b]thiophene-3-carbonitrile]: the pIC50 is more than 7.00 on K-Ras G12V; more than 5.30 in the experiment on SW620 cells; more than 7.00 at K-Ras WT; more than 7.00 on K-Ras G12D; more than 5.30 in the experiment with A549 cells; more than 7.00 on K-Ras G12S.
